Data reported in paper PMC7003431, “Betulinic acid shows anticancer activity against equine melanoma cells and permeates isolated equine skin in vitro” (BMC Veterinary Research, 2020).

Tests used:
actinic keratoses = test system: actinic keratoses; set-up: method as in PMID 18808378; conditions: 14 human patients; cited from earlier work
[1] = test system: primary equine dermal fibroblasts PriFi1; test: MTS cytotoxicity assay (CellTiter 96 AQueous One Solution); assay type: cell-based, horse; conditions: Equus caballus, Fibroblast, mean (95% CI), 6–8 experiments
Method: (§1) The inhibitory effect of BA on cell proliferation was evaluated using a modified crystal violet staining (CVS) assay. In brief, cells were seeded into 96-well microtiter plates with a density of 5000 cells/well to avert confluence of the cells during the experimental period. Twenty-four hours later, the cells were treated with serial dilutions of BA dissolved in DMSO and medium at nine different concentrations ranging from 1 to 100 μmol/L. The highest concentration of DMSO solvent was 0.5% in 100 μmol/L, which had neither an impact on the cell proliferation rate nor on the cell survival rate (preliminary experiments and regular controls within the experiments; data not shown). Control cells were only treated with medium. The proportion of treated cells in relation to untreated controls was determined 5, 24, 48 and 96 h after the beginning of the drug exposure. The medium for 96-h experiments was renewed before cell treatment (24 h after inoculation). The medium-compound mix was discarded at the time points mentioned above and cells were fixed with 2% glutaraldehyde (Sigma-Aldrich) in PBS for 20 min. Glutaraldehyde was removed and cells were dyed for 30 min with 0.1% crystal violet (Roth GmbH, Karlsruhe, Germany) in deionized water. After washing with deionized water, the plates were air-dried. Subsequently, crystal violet was solubilized out of the cells by adding 2% Triton X-100 (Sigma-Aldrich, Steinheim, Germany) in deionized water. After 1 h of incubation, absorbance was measured at 570 nm using a 96-well microtiter plate reader (MRX microplate reader, Dynatech Laboratories, El Paso, US). Experiments were performed in six to eight biological replicates with two technical replicates for each combination of cell type, incubation time and pharmacologic compound concentration. The ratios of mean optical density of the duplicate to mean optical density of the associated controls were used for dose-response curves.
(§2) The cytotoxicity of BA was evaluated using the CellTiter 96® AQueous One Solution Cell Proliferation Assay (MTS) (Promega GmbH, Mannheim, Germany). Cells were seeded into 96-well microtiter plates with the appropriate cell densities to achieve confluence after 48 h (MelDuWi 30.000 cells/well; PriFi1, PriFi2, eRGO1 20.000 cells/well). After 48 h, these cells were treated in accordance with the CVS assay. Experiments were stopped at the same time points as the CVS assay. The medium for the 96-h experiments was renewed before treatment. The MTS was applied in accordance with the manufacturer’s instructions. After 1 h incubation, the plate absorbance was measured at 490 nm using a 96-well microtiter plate reader (MRX microplate reader, Dynatech Laboratories, El Paso, US). Experiments were performed in six to eight biological replicates with two technical replicates for each combination of pharmacologic compound, cell type, incubation time and concentration.
(§3) Technical duplicates with a coefficient of variation of more than 20% were excluded from the analysis of the cell assays. The pharmacodynamic model 108 of Phoenix® WinNonlin® software (version 8.1, Certara, USA) was used to determine half-maximal inhibitory concentrations (IC50 values). Further statistical analysis was performed with R 3.5.1 [60]. A generalized additive model was fitted for both MTS and CVS using the ‘mgcv’ package to estimate the effects of the BA concentration, cell line and duration of incubation on the ratio of the mean optical density of the duplicates from six to eight replicates to the mean optical density of the associated controls. The effect of concentration was modelled as a smoothed term interacting with the duration of incubation using a thin plate regression spline. The P-values were obtained by performing a Wald test for each parameter. Post-hoc comparisons for the cell line and duration of incubation were performed using the ‘multcomp’ package with single-step adjustment of the P-values. […]

[2] = test system: primary equine dermal fibroblasts PriFi2; test: as above; assay type: cell-based, horse; conditions: Equus caballus, Fibroblast, mean (95% CI), 6–8 experiments
Method: as §1, §2, §3

[3] = test system: primary equine melanoma cells MelDuWi; test: as above; assay type: cell-based, horse; conditions: Equus caballus, mean (95% CI), 6–8 experiments
Method: as §1, §2, §3

[4] = test system: primary equine melanoma cells eRGO1; test: as above; assay type: cell-based, horse; conditions: Equus caballus, mean (95% CI), 6–8 experiments
Method: as §1, §2, §3

[5] = test system: primary equine dermal fibroblasts PriFi1; test: Crystal violet staining (CVS) proliferation assay; assay type: cell-based, horse; conditions: Equus caballus, Fibroblast, mean (95% CI), 6–8 experiments
Method: as §1
(§4) Technical duplicates with a coefficient of variation of more than 20% were excluded from the analysis of the cell assays. The pharmacodynamic model 108 of Phoenix® WinNonlin® software (version 8.1, Certara, USA) was used to determine half-maximal inhibitory concentrations (IC50 values). Further statistical analysis was performed with R 3.5.1 [60]. A generalized additive model was fitted for both MTS and CVS using the ‘mgcv’ package to estimate the effects of the BA concentration, cell line and duration of incubation on the ratio of the mean optical density of the duplicates from six to eight replicates to the mean optical density of the associated controls. The effect of concentration was modelled as a smoothed term interacting with the duration of incubation using a thin plate regression spline. The P-values were obtained by performing a Wald test for each parameter. Post-hoc comparisons for the cell line and duration of incubation were performed using the ‘multcomp’ package with single-step adjustment of the P-values. Plots were produced with ggplot2 [63]. Statistical significance was set at P < 0.05.

[6] = test system: primary equine dermal fibroblasts PriFi2; test: Crystal violet staining (CVS) proliferation assay; assay type: cell-based, horse; conditions: Equus caballus, Fibroblast, mean (95% CI), 6–8 experiments
Method: as §1, §4

[7] = test system: primary equine melanoma cells MelDuWi; test: Crystal violet staining (CVS) proliferation assay; assay type: cell-based, horse; conditions: Equus caballus, mean (95% CI), 6–8 experiments
Method: as §1, §4

[8] = test system: primary equine melanoma cells eRGO1; test: Crystal violet staining (CVS) proliferation assay; assay type: cell-based, horse; conditions: Equus caballus, mean (95% CI), 6–8 experiments
Method: as §1, §4

[9] = Franz-type diffusion cell penetration and permeation on isolated equine skin; assay type: in vitro ADME, horse; conditions: 24 h FDC
Source text: Skin samples from seven adult horses of different sex (three mares, two geldings, two unknown) and breed (including three Warmbloods, one Icelandic horse and one Welsh Cob pony, two unknown) were harvested at the Institute of Pathology, University of Veterinary Medicine Hannover, Foundation, Hannover, after euthanasia at the Clinic for Horses, University of Veterinary Medicine Hannover, Foundation, Hannover, for reasons unrelated to the present study. The horses’ ages ranged from 4 to 24 years, with a median of 13.5 years. Skin from the lateral thorax was dissected and stored at − 20 °C for up to 5 months.
“Basiscreme DAC” (pharmaceutical amphiphilic formulation as published in the German Drug Codex) with 1% BA and 20% medium-chain triglycerides was provided by Skinomics GmbH, Halle, Germany.
In order to investigate the penetration and permeation of 1% BA with 20% medium-chain triglycerides in “Basiscreme DAC” through equine skin, the skin samples were defrosted overnight at room temperature. The coat was clipped to a length of approximately 0.5 mm. The integrity of the skin samples was visually assessed. Skin slices of 800 μm (+/− 110 μm) thickness were obtained with an electrical dermatome (Zimmer, Eschbach, Germany). Franz-type diffusion cells (FDC) (PermeGear, Riegelsville, USA, and Gauer Glas, Püttlingen, Germany) with a diffusion area of 1.77 cm^2 and an acceptor chamber volume of approximately 12 mL were filled with PBS and 1% bovine serum albumin. The acceptor chamber content was constantly stirred with a magnetic stirrer at 500 rpm. Diffusion chambers were maintained at 34 °C to ensure a skin temperature of 32 ± 0.5 °C. Before use, equal hydration of the skin samples was obtained by 30 min immersion in PBS. After gently drying with a paper tissue, 20 mg of the drug formulation was carefully applied to the skin surface (stratum corneum) covering the complete diffusion area before mounting the skin pieces onto the FDC. The donor chamber and sampling tube were covered with parafilm.
After 24 h, the remaining donor formulation was removed from the skin with a dry cotton swab. Cotton swabs, acceptor medium and exposed areas of the skin samples, which were cut out with a scalpel blade, were stored at − 20 °C until further processing and analysis. In order to determine the amount of BA in different skin layers, frozen skin samples were fixed on tissue freezing medium (Leica Biosystems Nussloch GmbH, Nussloch, Germany) and placed in a cryostat (CryoStar™ NX70 Cryostat, Thermofisher, Darmstadt, Germany). From each skin sample slices were cut horizontally to the epidermis, starting with the stratum corneum side uppermost, and stored separately. […] After reaching a skin depth of 310 μm, slices were pooled at 5 × 20 μm until a depth of a maximum of 910 μm was reached. The blade was cleaned with tissues soaked in 70% ethanol (CG Chemikalien, Laatzen, Germany) between each cut. These cleaning tissues and skin samples were stored at − 20 °C until final analysis. An analytic high-performance liquid chromatography method was developed for BA quantification in the different skin layers, acceptor medium and cleaning utensils mentioned previously. Reverse phase analysis was performed using an Agilent 1100 system (Agilent, Waldbronn, Germany) on a Kinetex column (5 μm, C18, 100 Å, 250 × 4.6 mm; Phenomenex, Torrance, US) at 35 °C developing with acetonitrile:water (0.1% HCOOH) 4:1 (v/v) at 2.5 mL/min. The diode array detector was set at 200 nm.

[10] = test system: primary equine melanoma cells compared to primary equine dermal fibroblasts; test: Selectivity to tumor cells compared to normal cells (MTS and CVS assays); assay type: cell-based, horse; conditions: equine melanoma cells eRGO1, MelDuWi vs fibroblasts PriFi1, PriFi2
Method: The inhibitory effect of BA on cell proliferation was evaluated using a modified crystal violet staining (CVS) assay. In brief, cells were seeded into 96-well microtiter plates with a density of 5000 cells/well to avert confluence of the cells during the experimental period. Twenty-four hours later, the cells were treated with serial dilutions of BA dissolved in DMSO and medium at nine different concentrations ranging from 1 to 100 μmol/L. The highest concentration of DMSO solvent was 0.5% in 100 μmol/L, which had neither an impact on the cell proliferation rate nor on the cell survival rate (preliminary experiments and regular controls within the experiments; data not shown). Control cells were only treated with medium. The proportion of treated cells in relation to untreated controls was determined 5, 24, 48 and 96 h after the beginning of the drug exposure. […] After 1 h of incubation, absorbance was measured at 570 nm using a 96-well microtiter plate reader (MRX microplate reader, Dynatech Laboratories, El Paso, US). […]
The cytotoxicity of BA was evaluated using the CellTiter 96® AQueous One Solution Cell Proliferation Assay (MTS) (Promega GmbH, Mannheim, Germany). […] After 1 h incubation, the plate absorbance was measured at 490 nm using a 96-well microtiter plate reader (MRX microplate reader, Dynatech Laboratories, El Paso, US). […]

[11] = test system: equine melanoma cells MelDuWi; set-up: method as in PMID 26772157; conditions: 96 h incubation, read-out: IC50, sulforhodamine B assay; cited from earlier work
[12] = test system: equine melanoma cells MelJess; set-up: method as in PMID 26772157; conditions: 96 h incubation, read-out: IC50, sulforhodamine B assay; cited from earlier work
[13] = 1% BA with 20% medium-chain triglycerides in Basiscreme DAC, mean ± SD

C=C(C)[C@@H]1CC[C@]2(CO)CC[C@]3(C)[C@H](CC[C@@H]4[C@@]5(C)CC[C@H](O)C(C)(C)[C@@H]5CC[C@]43C)[C@@H]12 [betulin]
side effects of topical treatment (actinic keratoses): did not lead to any side effects

C=C(C)[C@@H]1CC[C@]2(C(=O)O)CC[C@]3(C)[C@H](CC[C@@H]4[C@@]5(C)CC[C@H](O)C(C)(C)[C@@H]5CC[C@]43C)[C@@H]12 [betulinic acid, Betulinic acid]
IC50 ([1]; PriFi1, 24 h treatment): 20.4 µM | IC50 ([1]; PriFi1, 48 h treatment): 18 µM | IC50 ([1]; PriFi1, 96 h treatment): 13.8 µM | IC50 ([2]; PriFi2, 24 h treatment): 24.8 µM | IC50 ([2]; PriFi2, 48 h treatment): 22.7 µM | IC50 ([2]; PriFi2, 96 h treatment): 13.3 µM | IC50 ([3]; 24 h treatment): 34.6 µM | IC50 ([3]; 48 h treatment): 31.7 µM | IC50 ([3]; 96 h treatment): 23.6 µM | IC50 ([4]; eRGO1, 24 h treatment): 22.8 µM | IC50 ([4]; eRGO1, 48 h treatment): 20.7 µM | IC50 ([4]; eRGO1, 96 h treatment): 12.7 µM | IC50 ([5]; PriFi1, 24 h treatment): 58 µM | IC50 ([5]; PriFi1, 48 h treatment): 52.2 µM | IC50 ([5]; PriFi1, 96 h treatment): 14.5 µM | IC50 ([6]; PriFi2, 24 h treatment): 30.3 µM | IC50 ([6]; PriFi2, 48 h treatment): 29.1 µM | IC50 ([6]; PriFi2, 96 h treatment): 13.8 µM | IC50 ([7]; 24 h treatment): 49.2 µM | IC50 ([7]; 48 h treatment): 35.8 µM | IC50 ([7]; 96 h treatment): 21.6 µM | IC50 ([8]; eRGO1, 24 h treatment): 25.9 µM | IC50 ([8]; eRGO1, 48 h treatment): 21.2 µM | IC50 ([8]; eRGO1, 96 h treatment): 19.6 µM | BA amount applied analyzed in the skin [9, 13]: 24 ± 1% | amount of BA applied detected in the acceptor media [9, 13]: 18 ± 11% | amount of BA applied detected in the cotton swabs ([9]; 1% BA with 20% medium-chain triglycerides in Basiscreme DAC, remaining donor formulation, mean ± SD): 56 ± 13% | recovery at 24 h, 1 % ([9]; both sexes, horse, 1% BA with 20% medium-chain triglycerides in Basiscreme DAC, mean ± SD, n = 7, read-out: overall BA recovery): 98 ± 7% | BA amount found in the blade cleaning tissues ([9]; part of the amount in skin, 1% BA cream, mean ± SD): 9 ± 7% | concentration of BA in skin ([9]; skin depth 710 μm, 1% BA cream, mean ± SD (SD 31 μmol/L)): 55.8 µM | concentration of BA in skin ([9]; skin depth 810 μm, 1% BA cream, mean ± SD (SD 38 μmol/L)): 39.6 µM | selectivity to tumor cells compared to normal cells [10]: could not be demonstrated | IC50 [11]: 33.1 µM | IC50 [12]: 33.4 µM
